Assay results from patent publication US7585851B2, “3′-prodrugs of 2′-deoxy-β-L-nucleosides” (priority 2000, dated 2009).
“Also recorded” adds a separate entry of the source. Like-named read-outs stand apart in the source and are kept apart here.

Columns and labels:
[1] = system: RSV type A; experiment: Antiviral panel: RSV type A (MA-104); format: cell-based
[2] = format: in vivo; conditions: woodchuck; for AUCt→24: t = […]; for Cmax: analyte = label, read-out: Cmax in plasma
[3] = system: Salmonella typhimurium strains TA98, TA100, TA1535, and TA1537; experiment: Plate incorporation mutation assay, S. typhimurium; conditions: with and without rat liver S-9; up to 5000 mg/plate, 5000 μg/plate
Procedure: L-dC was tested for its potential to cause mutation at the histidine operon of Salmonella typhimurium strains TA98, TA100, TA1535, and TA1537 and at the tryptophan opeton of Escherichia coli strain WP2uvrA. L-dC at concentrations of […] plus positive and negative controls were tested. […] After incubation for approximately 68 hours, L-dC and controls were evaluated for the number of revertants per plate and integrity of the background microcolony lawn.

[4] = system: HSV-2; experiment: Antiviral panel: HSV-2 (HFF); format: cell-based
[5] = system: HSV-1; experiment: Antiviral panel: HSV-1 (HFF); format: cell-based
[6] = system: MDCK, canine kidney epithelial cells
[7] = monkey, in vivo, 2000 mg/kg
[8] = human
[9] = Single dose bioavailability of dival-L-dC (IV and oral) in cynomologus monkey; format: in vivo, cynomologus monkey (macaca fascicularis)
Source text: The drug was quantitated in plasma and urine with a liquid chromatography-mass spectrometry (LC-MS) technique.

[10] = system: Influenza A/H3N2; experiment: Antiviral panel: Influenza A/H3N2 (MDCK); format: cell-based
[11] = system: Rhinovirus type 5; experiment: Antiviral panel: Rhinovirus type 5 (KB); format: cell-based
[12] = system: HCMV; experiment: Antiviral panel: HCMV (HFF); format: cell-based
[13] = rat
Procedure: The drug was detected and the concentration determined in plasma and urine using a reverse-phase HPLC technique. The data were analyzed by a non-modeling mathematical method and the AUCs derived by the linear trapezoidal rule.

[14] = system: Influenza B; experiment: Antiviral panel: Influenza B (MDCK); format: cell-based
[15] = dival-L-dC 10 mg/kg oral, monkey

Nc1ccn([C@@H]2C[C@@H](O)[C@H](CO)O2)c(=O)n1 [L-dC, 2′-deoxy-β-L-cytidine]
EC50 [1]: > 100 µM
CL ([2]; L-dC 10 mg/kg IV): 6.5 mL/min/kg
Tmax ([2]; L-dC 10 mg/kg IV): 0 h
Vd ([2]; L-dC 10 mg/kg IV): 1.17 L/kg
t1/2 ([2]; L-dC 10 mg/kg IV): 2.85 h
AUCt→24 ([2]; L-dC 10 mg/kg IV): 174 µM·h
Cmax ([2]; L-dC 10 mg/kg IV): 112 µM
oral bioavailability F ([2]; L-dC 10 mg/kg PO vs IV): 9.57%
Tmax ([2]; L-dC 10 mg/kg PO): 3 h
t1/2 ([2]; L-dC 10 mg/kg PO): 5.22 h
AUCt→24 ([2]; L-dC 10 mg/kg PO): 11.3 µM·h
Cmax ([2]; L-dC 10 mg/kg PO): 1.37 µM
mutagenicity [3]: no evidence of mutagenicity; also recorded: not mutagenic
EC50 [4]: >100 µg/mL
EC50 [5]: >100 µg/mL
CC50 [6]: > 100 µM
estimated terminal phase mean half-lives [7]: 4 to 5 h
plasma protein binding [8]: 19.7%±5.9%
share of drug excreted / recovered dose in urine, by analyte ([9]; IV dival-L-dC, analyte = label): ~93%
Cmax ([9]; Intravenous (10 mg/kg Dival-L-dC), analyte = label, read-out: Cmax of each metabolite): 24.6 µM
Cmax ([9]; Oral (10 mg/kg dival-L-dC), analyte = label, read-out: Cmax of each metabolite): 8.26 µM
AUC0.25→8 of L-dC ([9]; dival-L-dC 10 mg/kg IV, monkey): 19.8 µM·h
CL of L-dC ([9]; dival-L-dC 10 mg/kg IV, monkey): 16.8 mL/min/kg
Vd of L-dC ([9]; dival-L-dC 10 mg/kg IV, monkey): 2.46 L/kg
t1/2 of L-dC ([9]; dival-L-dC 10 mg/kg IV, monkey): 1.73 h
Cmax ([9]; dival-L-dC 10 mg/kg IV, monkey, read-out: Cmax of L-dC): 24.6 µM
AUC0.25→8 of L-dC [9, 15]: 14.0 µM·h
Tmax of L-dC [9, 15]: 0.67 h
t1/2 of L-dC [9, 15]: 2.28 h
share of plasma drug levels at Cmax ([9]; oral dival-L-dC): > 99%
share of drug excreted / recovered dose in urine, by analyte ([9]; oral dival-L-dC, analyte = label): ~95%
EC50 [10]: > 100 µM
EC50 [11]: > 100 µM
EC50 [12]: >100 µg/mL
AUC0.25→8 (table head AUC0-25-28) ([13]; L-dC 10 mg/kg IV): 30100 µM·h
CL ([13]; L-dC 10 mg/kg IV): 24 mL/min/kg
Tmax ([13]; L-dC 10 mg/kg IV): 0 h
Vd ([13]; L-dC 10 mg/kg IV): 2.53 L/kg
t1/2 ([13]; L-dC 10 mg/kg IV): 1.21 h
oral bioavailability F ([13]; L-dC 10 mg/kg oral vs IV): 15.4%
AUC0.25→8 (table head AUC0-25-28) ([13]; L-dC 10 mg/kg oral): 4770 µM·h
Tmax ([13]; L-dC 10 mg/kg oral): 1.0 h
t1/2 ([13]; L-dC 10 mg/kg oral): 2.52 h
EC50 [14]: > 100 µM
